Assay results: patent EP4692083A1, “NOVEL AZABICYCLE DERIVATIVES AND PHARMACEUTICAL COMPOSITION FOR INHIBITING AUTOTAXIN, COMPRISING SAME” (Nextgen Bioscience Co., Ltd., priority 2023, dated 2024)

Biological target: human Autotaxin protein (Homo sapiens, UniProt Q13822)
Experiment: Evaluation of the inhibitory activity against human Autotaxin protein (18:1 LysoPC substrate, choline assay kit, absorbance at 570 nm)
Type: biochemical
Conditions: at 500nM compound, 2 hours at 37 °C, read-out: Inhibition rate (%, at 500nM)
Procedure: Solutions of each synthesized compound (80 uM, 100% dimethyl sulfoxide) were sequentially diluted 5-fold with dimethyl sulfoxide to prepare 6 concentrations. Each concentration of the compound was diluted 2-fold with 1x test buffer (50 mM Tris-Cl (pH 8.0), 5 mM KCl, 1 mM CaCl2, 1 mM MgCl2, 140 mM NaCl, deionized water, 1 mg/mL BSA), and 1 uL (1.25% dimethylsulfoxide) of the diluted mixture was dispensed into each well of a 96-well clear round-bottom plate. 9 uL of 1x test buffer was added, and 20 uL of 240 nM human autotaxin protein (buffer: 50 mM Tris-HCl, pH 8.0, with 150 mM sodium chloride and 20% glycerol) was added. 10 uL of sonicated 360 uM 18:1 LysoPC (diluted with 1x assay buffer) was added. The reaction was performed for 2 hours in a shaking incubator at 37 °C, and a secondary reaction mixture (choline assay kit, KA1662) (65 uL of 1x assay buffer: 1 uL of choline oxidase: 1 uL of dye probe) was prepared. 60 uL of the secondary reaction mixture was added to the plate where the reaction was performed, and incubated for 30 minutes in a shaker. The absorbance value was measured at a wavelength of 570 nm using a SpectraMax iD3 microplate reader. The percentage inhibition activity value (% inhibition) was calculated by the formula: (1 - absorbance value test group / absorbance value control group) X 100.

With O=C(O)C[C@@H]1[C@H]2CN(c3nnc(-c4cnc(NCCc5ccc(Cl)cc5)nc4)o3)C[C@@H]12 [Example 51, 2-((1R,5S,6s)-3-(5-(2-((4-Chlorophenethyl)amino)pyrimidin-5-yl)-1,3,4-oxadiazol-2-yl)-3-azabicyclo[3.1.0]hexan-6-yl)acetic acid] the inhibition at 0.5 µM was 3.5%.
